Laboratory results: patent US4267180A, “Novel antibacterial amide compounds and process means for producing the same” (Warner-Lambert Company, priority 1980, dated 1981)

Experiments:
Experiment in all cases: Minimal Inhibitory Concentration, in vitro
Assay type in all cases: cell-based
Parameters in all cases: unit not given here
Proteus Vulgaris 1810 = test system: Proteus Vulgaris 1810
Text: (§1) The compounds of the invention are new chemical compounds that are useful as pharmacological agents and especially as broad spectrum antibacterial agents. They are active in vitro against strains of both gram-positive and gram-negative bacteria.
(§2) Minimal Inhibitory Concentration

[1] = test system: Pseudomonas Aeruginosa #28
Text: as §1, §2

[2] = test system: Pseudomonas Aeruginosa UI-18
Text: as §1, §2

[3] = test system: Enterobacter Cloacae IMM-11
Text: as §1, §2

[4] = test system: Klebsiella Pneumoniae MGH-2
Text: as §1, §2

Staph Aureus UC-76 = test system: Staph Aureus UC-76
Text: as §1, §2

[5] = test system: Serratia Marcescens IMM-16
Text: as §1, §2

SMILES	Minimal Inhibitory Concentration (Proteus Vulgaris 1810)	Minimal Inhibitory Concentration [1]	Minimal Inhibitory Concentration [2]	Minimal Inhibitory Concentration [3]	Minimal Inhibitory Concentration [4]	Minimal Inhibitory Concentration (Staph Aureus UC-76)	Minimal Inhibitory Concentration [5]
CC(=O)NCCCCC(NC(C)=O)C(=O)Nc1ccc(-c2ncc(C(=O)N[C@@H](C(=O)N[C@@H]3C(=O)N4[C@@H]3SC(C)(C)[C@@H]4C(=O)O)c3ccc(O)cc3)c(O)n2)cc1 (mixture of isomers) [N,N'-Diacetyl-DL-Lysyl, N-[2-[4-(N,N'-Diacetyl-DL-lysylamino)phenyl]-4-hydroxy-5-pyrimidinylcarbonyl]amoxicillin]	6.3	1.6	3.1	25	> 50	1.6	50
CC(=O)NC(C)C(=O)Nc1ccc(-c2ncc(C(=O)N[C@@H](C(=O)N[C@@H]3C(=O)N4[C@@H]3SC(C)(C)[C@@H]4C(=O)O)c3ccc(O)cc3)c(O)n2)cc1 (mixture of isomers) [N-Acetyl-DL-Alanyl, N-[2-[4-(N-Acetyl-DL-alanylamino)phenyl]-4-hydroxy-5-pyrimidinyl-carbonyl]amoxicillin]	0.8	1.6	1.6	6.3	25	0.2	6.3
CC(=O)NC(CC(C)C)C(=O)Nc1ccc(-c2ncc(C(=O)N[C@@H](C(=O)N[C@@H]3C(=O)N4[C@@H]3SC(C)(C)[C@@H]4C(=O)O)c3ccc(O)cc3)c(O)n2)cc1 (mixture of isomers) [N-Acetyl-DL-Leucyl, N-[2-[4-(N-Acetyl-DL-leucylamino)phenyl]-4-hydroxy-5-pyrimidinylcarbonyl]amoxicillin]	3.1	3.1	3.1	25	> 50	1.6	25
CSCCC(NC(C)=O)C(=O)Nc1ccc(-c2ncc(C(=O)N[C@@H](C(=O)N[C@@H]3C(=O)N4[C@@H]3SC(C)(C)[C@@H]4C(=O)O)c3ccc(O)cc3)c(O)n2)cc1 (mixture of isomers) [N-Acetyl-DL-Methionyl, N-[2-[4-(N-acetyl-DL-methionylamino)phenyl]-4-hydroxy-5-pyrimidinylcarbonyl]amoxicillin]	3.1	1.6	1.6	12.5	50	1.6	12.5
CC(=O)N1CCCC1C(=O)Nc1ccc(-c2ncc(C(=O)N[C@@H](C(=O)N[C@@H]3C(=O)N4[C@@H]3SC(C)(C)[C@@H]4C(=O)O)c3ccc(O)cc3)c(O)n2)cc1 (mixture of isomers) [N-Acetyl-DL-Prolyl, N-[2-[4-(N-Acetyl-DL-prolylamino)phenyl]-4-hydroxy-5-pyrimidinylcarbonyl]amoxicillin]	1.6	1.6	1.6	12.5	50	0.8	12.5
CC(=O)NC(C(=O)Nc1ccc(-c2ncc(C(=O)N[C@@H](C(=O)N[C@@H]3C(=O)N4[C@@H]3SC(C)(C)[C@@H]4C(=O)O)c3ccc(O)cc3)c(O)n2)cc1)C(C)C (mixture of isomers) [N-Acetyl-DL-Valyl, N-[2-[4-(N-Acetyl-DL-valylamino)phenyl]-4-hydroxy-5-pyrimidinylcarbonyl]amoxicillin]	3.1	1.6	1.6	25	> 50	3.1	25
CC1(C)S[C@@H]2[C@H](NC(=O)[C@H](NC(=O)c3cnc(-c4ccc(NC(=O)[C@@H]5CCC(=O)N5)cc4)nc3O)c3ccc(O)cc3)C(=O)N2[C@H]1C(=O)O [5-Oxo-L-Prolyl, N-[2-[4-((5-oxo-L-prolyl)amino)phenyl]-4-hydroxy-5-pyrimidinylcarbonyl]amoxicillin]	0.8	0.8	1.6	6.3	50	0.8	12.5
CC1(C)S[C@@H]2[C@H](NC(=O)[C@H](NC(=O)c3cnc(-c4ccc(NC(=O)CN5CCCC5=O)cc4)nc3O)c3ccc(O)cc3)C(=O)N2[C@H]1C(=O)O [(2-Oxo-1-pyrrolidinyl)acetyl, N-[2-[4-[(2-Oxo-1-pyrrolidinyl)acetylamino]phenyl]-4-hydroxy-5-pyrimidinylcarbonyl]amoxicillin]	1.6	1.6	3.1	12.5	25	1.6	25
CC(=O)NCC(=O)Nc1ccc(-c2ncc(C(=O)N[C@@H](C(=O)N[C@@H]3C(=O)N4[C@@H]3SC(C)(C)[C@@H]4C(=O)O)c3ccc(O)cc3)c(O)n2)cc1 [N-Acetyl Glycyl]	1.6	1.6	6.3	6.3	50	0.8	6.3
CC(=O)N[C@@H](C)C(=O)Nc1ccc(-c2ncc(C(=O)N[C@@H](C(=O)N[C@@H]3C(=O)N4[C@@H]3SC(C)(C)[C@@H]4C(=O)O)c3ccc(O)cc3)c(O)n2)cc1 [N-Acetyl-L-Alanyl, N-[2-[4-(N-acetyl-L-alanylamino)phenyl]-4-hydroxy-5-pyrimidinylcarbonyl]amoxicillin]	0.8	1.6	0.8	6.3	50	0.4	12.5
CC(=O)N1CC(O)C[C@H]1C(=O)Nc1ccc(-c2ncc(C(=O)N[C@@H](C(=O)N[C@@H]3C(=O)N4[C@@H]3SC(C)(C)[C@@H]4C(=O)O)c3ccc(O)cc3)c(O)n2)cc1 (stereo partly drawn) [N-Acetyl-L-Hydroxyprolyl, N-[2-[4-(N-Acetyl-L-hydroxyprolylamino)phenyl]-4-hydroxy-5-pyrimidinylcarbonyl]amoxicillin]	3.1	1.6	1.6	12.5	50	0.8	50
CC(=O)N[C@@H](Cc1ccc(O)cc1)C(=O)Nc1ccc(-c2ncc(C(=O)N[C@@H](C(=O)N[C@@H]3C(=O)N4[C@@H]3SC(C)(C)[C@@H]4C(=O)O)c3ccc(O)cc3)c(O)n2)cc1 [N-Acetyl-L-Tyrosyl, N-[2-[4-(N-Acetyl-L-tyrosylamino)phenyl]-4-hydroxy-5-pyrimidinylcarbonyl]amoxicillin]	3.1	1.6	3.1	12.5	50	1.6	12.5
CC(=O)NCCC(=O)Nc1ccc(-c2ncc(C(=O)N[C@@H](C(=O)N[C@@H]3C(=O)N4[C@@H]3SC(C)(C)[C@@H]4C(=O)O)c3ccc(O)cc3)c(O)n2)cc1 [N-Acetyl-beta-Alanyl, N-[2-[4-(N-Acetyl-beta-alanylamino)phenyl]-4-hydroxy-5-pyrimidinylcarbonyl]amoxicillin]	0.8	0.8	0.8	6.3	25	0.4	6.3
CC(=O)NC(C)(C)C(=O)Nc1ccc(-c2ncc(C(=O)N[C@@H](C(=O)N[C@@H]3C(=O)N4[C@@H]3SC(C)(C)[C@@H]4C(=O)O)c3ccc(O)cc3)c(O)n2)cc1 [N-Acetylamino Isobutyryl, N-[2-[4-(alpha-Acetamidoisobutyrylamino)phenyl]-4-hydroxy-5-pyrimidinylcarbonyl]amoxicillin]	0.4	0.8	0.8	6.3	> 50	1.6	12.5
CC1(C)S[C@@H]2[C@H](NC(=O)[C@H](NC(=O)c3cnc(-c4ccc(NC(=O)CNC(N)=O)cc4)nc3O)c3ccc(O)cc3)C(=O)N2[C@H]1C(=O)O [N-Carbamoyl Glycyl, N-[2-[4-(N-Carbamoylglycylamino)phenyl]-4-hydroxy-5-pyrimidinylcarbonyl]amoxicillin]	3.1	0.8	1.6	25	50	0.8	25
